Reference: patent US20240217969A1, “SUBSTITUTED PYRROLE CARBOXAMIDES, PROCESS FOR THEIR PREPARATION AND THEIR USE AS KINASE INHIBITORS” (priority 2021, published 2024)

Assays:
Cdc7 = Cdc7 (Homo sapiens, UniProt O00311); assay: Cdc7 biochemical assay, ADPGlo assay format
Experimental: The biochemical activity of compounds was determined by incubation with specific enzymes and substrate, followed by quantification of the ADP product. Compounds were 4-fold serially diluted from 10 to 0.0006 uM; in the case of the pre-incubation step, the enzyme is added to the inhibitor solution and the mixture is left to incubate for 30 minutes at room temperature (r.t.). The reaction started with the addition of the substrate and the ATP, when the enzyme was already present in the preincubation step, or substrate, ATP and enzyme when the preincubation step was not present. The concentrations of ATP, substrate and reaction buffer are described above. The assays were run in a robotized format on 384-well plates. […] At the end of the incubation time, an equal volume of ADPGlo Reagent 1 (Promega) was added to stop the reaction and to remove all unreacted ATP. After 60 minutes, an equal volume of ADPGlo Reagent 2 (Promega) was added to convert ADP in ATP and then ATP in light by luciferase reaction.
y=bottom+(top−bottom)/(1+10^((log IC50−x)*slope))
where x is the logarithm of the inhibitor concentration, y is the response; y starts at bottom and goes to top with a sigmoid shape.

[1] = molecular target: T1, aldehyde oxidases (human liver cytosol) (Homo sapiens, UniProt Q06278); assay type: in vitro ADME; details: human liver cytosol 1 mg/mL, 1 μM compound; for HLC % remaining (1 h incub.): 60 min incubation; for HLC % remaining (1 h incub.) / HLC T½ min: pH 7.4, 37° C.; for IntCl (Intrinsic Clearance): half-life approach
T1 construct: added to human liver cytosol (1 mg/mL protein content); from tissue; host or cells: human liver cytosol
T1 sequence (Q06278 whole entry): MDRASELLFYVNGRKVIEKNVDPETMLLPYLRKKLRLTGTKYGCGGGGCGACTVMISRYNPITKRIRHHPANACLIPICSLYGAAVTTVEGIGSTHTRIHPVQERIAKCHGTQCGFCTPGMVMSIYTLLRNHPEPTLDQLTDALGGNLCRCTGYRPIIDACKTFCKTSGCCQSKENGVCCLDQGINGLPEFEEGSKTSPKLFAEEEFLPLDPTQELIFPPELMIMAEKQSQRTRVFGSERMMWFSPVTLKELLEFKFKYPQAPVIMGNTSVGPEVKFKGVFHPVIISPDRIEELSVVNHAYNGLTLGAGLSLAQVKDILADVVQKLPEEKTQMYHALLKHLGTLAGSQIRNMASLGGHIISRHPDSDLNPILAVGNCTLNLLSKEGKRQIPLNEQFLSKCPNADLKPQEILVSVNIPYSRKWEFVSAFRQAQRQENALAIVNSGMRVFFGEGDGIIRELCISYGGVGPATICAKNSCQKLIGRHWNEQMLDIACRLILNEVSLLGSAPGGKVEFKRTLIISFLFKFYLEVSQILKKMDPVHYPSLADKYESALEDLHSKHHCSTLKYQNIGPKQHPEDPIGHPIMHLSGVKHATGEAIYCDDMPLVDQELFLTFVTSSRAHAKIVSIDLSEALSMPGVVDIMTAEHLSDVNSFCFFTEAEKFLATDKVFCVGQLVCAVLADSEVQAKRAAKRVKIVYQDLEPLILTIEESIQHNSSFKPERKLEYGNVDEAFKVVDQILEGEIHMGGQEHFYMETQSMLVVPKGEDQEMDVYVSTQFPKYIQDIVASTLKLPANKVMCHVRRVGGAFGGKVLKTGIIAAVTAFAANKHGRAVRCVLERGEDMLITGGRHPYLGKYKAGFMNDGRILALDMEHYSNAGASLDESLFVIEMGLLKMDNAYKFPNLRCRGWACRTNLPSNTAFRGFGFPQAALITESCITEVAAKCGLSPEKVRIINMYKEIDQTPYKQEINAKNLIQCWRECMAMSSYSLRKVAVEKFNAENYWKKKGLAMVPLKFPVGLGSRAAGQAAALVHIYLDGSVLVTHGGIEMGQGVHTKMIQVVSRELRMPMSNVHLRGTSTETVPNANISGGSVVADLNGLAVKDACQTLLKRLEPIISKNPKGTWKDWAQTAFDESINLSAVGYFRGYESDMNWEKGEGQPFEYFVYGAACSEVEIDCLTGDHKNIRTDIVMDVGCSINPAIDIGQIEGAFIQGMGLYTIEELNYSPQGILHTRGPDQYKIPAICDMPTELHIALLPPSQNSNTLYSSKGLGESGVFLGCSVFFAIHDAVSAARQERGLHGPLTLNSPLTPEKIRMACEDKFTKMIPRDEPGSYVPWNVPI
Experimental: The aldehyde oxidases involvement in the metabolism of the test item was determined by comparison of the intrinsic clearance values in the presence and absence of aldehyde oxidases inhibitor hydralazine hydrochloride. The purpose of the study was to evaluate the in-vitro intrinsic clearance, the metabolic stability towards aldehyde oxidases (AO) activity and the metabolism of the test item in human liver cytosol. The intrinsic clearance was determined using the half-life approach, by measuring the substrate disappearance along 60 minutes incubation with human liver cytosol. Incubations were performed at the concentration of 1 μM. […] HPLC-MS/MS was used for the detection of the compound left over during the incubation. For intrinsic clearance determination samples were analyzed by high performance liquid chromatography (HPLC) on-line with mass spectrometry (MS) equipment. For the determination of aldehyde oxidases activity (i.e. positive control) of cytosol, phthalazine was incubated with human liver cytosol in presence and absence of the aldehyde oxidases inhibitor. On the day of the incubation, the compound was dissolved in DMSO at the concentration of 10 mM. Aliquots of this solution were added to the test system to a final concentration of […]. The percentage of DMSO in the final incubates was […]. Aliquots of the test item were added to human liver cytosol (1 mg/mL protein content) in Dulbecco's buffer, pH 7.4 at 37° C., to reach final concentration of 1 μM. Incubations were performed in a 48-well plate, under shaking. At 0, 5, 10, 20, 30 and 60 minutes incubation, 50 μL aliquots of the incubate were sampled, poured in 80 μL of ice-cold acetonitrile and 20 μL of 1 μM warfarin in acetonitrile (injection control) and centrifuged at 2500 rpm for 20 minutes. The supernatant was immediately analysed by LC-MS/MS.
The test item was incubated in parallel, in duplicate, at the concentration of 1 μM in Dulbecco's buffer, pH 7.4 for 60 min at 37° C. in the presence of 10 μM hydralazine hydrochloride (aldehyde oxidases inhibitor).
The chemical stability of the test item was checked in parallel by incubating the test item in single at the concentration of 1 μM in Dulbecco's buffer, pH 7.4 for 60 min at 37° C. (negative control).
The intrinsic clearance (CLint) was calculated using the half-life approach. Half-life and CLint were determined from the concentration (area counts) remaining at the different sampling points using the LC-MS/MS method. By plotting the natural logarithmic area of the compound remaining against the time, the slope was calculated by linear regression analysis and converted into the half-life (t½) and CLint expressed as μL/min/mg protein according to the following formulae: […]

Cdc7, sequence (O00311 whole entry): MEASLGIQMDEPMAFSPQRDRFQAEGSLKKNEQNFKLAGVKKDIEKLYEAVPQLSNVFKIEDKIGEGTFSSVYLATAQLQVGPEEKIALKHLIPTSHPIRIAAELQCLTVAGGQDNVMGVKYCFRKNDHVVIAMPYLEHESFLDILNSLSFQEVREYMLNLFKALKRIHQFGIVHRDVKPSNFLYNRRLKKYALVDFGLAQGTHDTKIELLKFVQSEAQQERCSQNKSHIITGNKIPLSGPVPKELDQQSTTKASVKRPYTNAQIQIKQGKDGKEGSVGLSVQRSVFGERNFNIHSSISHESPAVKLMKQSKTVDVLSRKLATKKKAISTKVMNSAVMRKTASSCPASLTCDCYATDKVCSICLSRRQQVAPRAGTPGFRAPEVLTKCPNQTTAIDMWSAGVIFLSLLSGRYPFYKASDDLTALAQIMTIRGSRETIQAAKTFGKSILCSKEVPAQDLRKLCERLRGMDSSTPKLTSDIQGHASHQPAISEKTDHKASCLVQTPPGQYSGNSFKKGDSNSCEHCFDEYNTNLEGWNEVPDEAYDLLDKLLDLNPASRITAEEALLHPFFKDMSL
Cdc7, sequence (Q9UBU7 whole entry partner): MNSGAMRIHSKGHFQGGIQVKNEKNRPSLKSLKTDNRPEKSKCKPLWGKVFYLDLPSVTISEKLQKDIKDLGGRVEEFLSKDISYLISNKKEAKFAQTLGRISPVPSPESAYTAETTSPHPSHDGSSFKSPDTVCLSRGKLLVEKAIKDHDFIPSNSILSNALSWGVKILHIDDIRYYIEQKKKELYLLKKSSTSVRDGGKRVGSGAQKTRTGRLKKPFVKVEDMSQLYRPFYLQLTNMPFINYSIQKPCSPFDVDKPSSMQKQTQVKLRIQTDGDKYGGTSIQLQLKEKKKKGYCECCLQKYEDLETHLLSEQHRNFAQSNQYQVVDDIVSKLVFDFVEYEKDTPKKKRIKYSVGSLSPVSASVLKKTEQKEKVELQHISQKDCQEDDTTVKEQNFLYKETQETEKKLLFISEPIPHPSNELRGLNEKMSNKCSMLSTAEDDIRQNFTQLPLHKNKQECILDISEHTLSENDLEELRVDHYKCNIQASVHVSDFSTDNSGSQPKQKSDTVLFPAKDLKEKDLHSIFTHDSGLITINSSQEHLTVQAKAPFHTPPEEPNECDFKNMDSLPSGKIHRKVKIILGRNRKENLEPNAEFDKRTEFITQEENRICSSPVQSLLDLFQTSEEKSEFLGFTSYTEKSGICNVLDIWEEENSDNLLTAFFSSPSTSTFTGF

Compound	IC50 (Cdc7) [nM]	also measured
COc1ccc(-c2[nH]c(-c3ccnc4[nH]ccc34)cc2C(N)=O)c(C(F)(F)F)c1 [comp 16, 2-[4-methoxy-2-(trifluoromethyl)phenyl]-5-(1H-pyrrolo[2,3-b]pyridin-4-yl)-1H-pyrrole-3-carboxamide]	6	–
NC(=O)c1cc(-c2ccnc3[nH]ccc23)[nH]c1-c1ccc(OC(F)F)cc1Cl [comp 17, 2-[2-chloro-4-(difluoromethoxy)phenyl]-5-(1H-pyrrolo[2,3-b]pyridin-4-yl)-1H-pyrrole-3-carboxamide]	1	–
NC(=O)c1cc(-c2ccnc3[nH]ccc23)[nH]c1-c1ccc(Cl)c(Cl)c1 [comp 18, 2-(3,4-dichlorophenyl)-5-(1H-pyrrolo[2,3-b]pyridin-4-yl)-1H-pyrrole-3-carboxamide]	31	–
NC(=O)c1cc(-c2ccnc3[nH]ccc23)[nH]c1-c1ccc(F)c(F)c1 [comp 19, 2-(3,4-difluorophenyl)-5-(1H-pyrrolo[2,3-b]pyridin-4-yl)-1H-pyrrole-3-carboxamide]	15	–
CCOc1cccc(-c2[nH]c(-c3ccnc4[nH]ccc34)cc2C(N)=O)c1F [comp 20, 2-(3-ethoxy-2-fluorophenyl)-5-(1H-pyrrolo[2,3-b]pyridin-4-yl)-1H-pyrrole-3-carboxamide]	5	–
Cc1ccc(-c2[nH]c(-c3ccnc4[nH]ccc34)cc2C(N)=O)cc1[N+](=O)[O-] [comp 21, 2-(4-methyl-3-nitrophenyl)-5-(1H-pyrrolo[2,3-b]pyridin-4-yl)-1H-pyrrole-3-carboxamide]	34	–
NC(=O)c1cc(-c2[nH]c(-c3ccnc4[nH]ccc34)cc2C(N)=O)ccc1F [comp 22, 2-(3-carbamoyl-4-fluorophenyl)-5-(1H-pyrrolo[2,3-b]pyridin-4-yl)-1H-pyrrole-3-carboxamide]	27	–
Cc1ccc(-c2[nH]c(-c3ccnc4[nH]ccc34)cc2C(=O)NCCN(C)C)c(F)c1 [comp 24, N-[2-(dimethylamino)ethyl]-2-(2-fluoro-4-methylphenyl)-5-(1H-pyrrolo[2,3-b]pyridin-4-yl)-1H-pyrrole-3-carboxamide]	741	–
Cc1ccc(-c2[nH]c(-c3ccnc4[nH]ccc34)cc2C(=O)N[C@H]2CCCC[C@H]2N)c(F)c1 [comp 26, N-[(1S,2R)-2-aminocyclohexyl]-2-(2-fluoro-4-methylphenyl)-5-(1H-pyrrolo[2,3-b]pyridin-4-yl)-1H-pyrrole-3-carboxamide]	12	–
Cc1ccc(-c2[nH]c(-c3ccnc4[nH]ccc34)cc2C(=O)NCc2ccco2)c(F)c1 [comp 27, 2-(2-fluoro-4-methylphenyl)-N-(furan-2-ylmethyl)-5-(1H-pyrrolo[2,3-b]pyridin-4-yl)-1H-pyrrole-3-carboxamide]	61	–
Cc1ccc(-c2[nH]c(-c3ccnc4[nH]ccc34)cc2C(=O)NCCF)c(F)c1 [comp 28, N-(fluoroethyl)-2-(2-fluoro-4-methylphenyl)-5-(1H-pyrrolo[2,3-b]pyridin-4-yl)-1H-pyrrole-3-carboxamide]	67	–
Cc1ccc(-c2[nH]c(-c3ccnc4[nH]ccc34)cc2C(=O)NC2CCN(C)CC2)c(F)c1 [comp 30, 2-(2-fluoro-4-methylphenyl)-N-(1-methylpiperidin-4-yl)-5-(1H-pyrrolo[2,3-b]pyridin-4-yl)-1H-pyrrole-3-carboxamide]	3130	–
NC(=O)c1cc(-c2ccnc3[nH]ccc23)[nH]c1-c1cccc2c1sc1ccccc12 [comp 31, 2-(dibenzo[b,d]thiophen-4-yl)-5-(1H-pyrrolo[2,3-b]pyridin-4-yl)-1H-pyrrole-3-carboxamide]	759	–
Cc1ccc(-c2[nH]c(-c3ccnc4[nH]ccc34)cc2C(N)=O)c2ccccc12 [comp 32, 2-(4-methylnaphthalen-1-yl)-5-(1H-pyrrolo[2,3-b]pyridin-4-yl)-1H-pyrrole-3-carboxamide]	17	–
NC(=O)c1cc(-c2ccnc3[nH]ccc23)[nH]c1-c1cccc(F)c1 [comp 33, 2-(3-fluorophenyl)-5-(1H-pyrrolo[2,3-b]pyridin-4-yl)-1H-pyrrole-3-carboxamide]	14	–
NC(=O)c1cc(-c2ccnc3[nH]ccc23)[nH]c1-c1ccc(OC(F)(F)F)cc1 [comp 34, 5-(1H-pyrrolo[2,3-b]pyridin-4-yl)-2-[4-(trifluoromethoxy)phenyl]-1H-pyrrole-3-carboxamide]	42	–
NC(=O)c1cc(-c2ccnc3[nH]ccc23)[nH]c1-c1csc2ccccc12 [comp 35, 2-(1-benzothiophen-3-yl)-5-(1H-pyrrolo[2,3-b]pyridin-4-yl)-1H-pyrrole-3-carboxamide]	7	–
NC(=O)c1cc(-c2ccnc3[nH]ccc23)[nH]c1-c1ccc2c(c1)OCCO2 [comp 36, 2-(2,3-dihydro-1,4-benzodioxin-6-yl)-5-(1H-pyrrolo[2,3-b]pyridin-4-yl)-1H-pyrrole-3-carboxamide]	10	–
Cc1cc(F)ccc1-c1[nH]c(-c2ccnc3[nH]ccc23)cc1C(N)=O [comp 37, 2-(4-fluoro-2-methylphenyl)-5-(1H-pyrrolo[2,3-b]pyridin-4-yl)-1H-pyrrole-3-carboxamide]	2	–
Cc1ccc(-c2[nH]c(-c3ccnc4[nH]ccc34)c(I)c2C(N)=O)c(F)c1 [comp 38, 2-(2-fluoro-4-methylphenyl)-4-iodo-5-(1H-pyrrolo[2,3-b]pyridin-4-yl)-1H-pyrrole-3-carboxamide]	101	–
Cc1ccc(-c2[nH]c(-c3ccnc4[nH]ccc34)c(Br)c2C(N)=O)c(F)c1 [comp 39, 2-(2-fluoro-4-methylphenyl)-4-bromo-5-(1H-pyrrolo[2,3-b]pyridin-4-yl)-1H-pyrrole-3-carboxamide]	159	–
CCc1c(-c2ccnc3[nH]ccc23)[nH]c(-c2ccc(C)cc2F)c1C(N)=O [comp 40, 4-ethyl-2-(2-fluoro-4-methylphenyl)-5-(1H-pyrrolo[2,3-b]pyridin-4-yl)-1H-pyrrole-3-carboxamide]	717	–
NC(=O)c1cc(-c2csc(N)n2)[nH]c1-c1ccc(Cl)cc1Cl [compound 45, 5-(2-amino-1,3-thiazol-4-yl)-2-(2,4-dichlorophenyl)-1H-pyrrole-3-carboxamide]	–	HLC % remaining (1 h incub.) [1]: 98%; IntCl (Intrinsic Clearance) [1]: 2.9 μL/min/mg protein; HLC T½ min [1]: 239 min
NC(=O)c1cc(-c2ccnc3[nH]ncc23)[nH]c1-c1ccc(Cl)cc1Cl [compound 47, 2-(2,4-dichlorophenyl)-5-(1H-pyrazolo[3,4-b]pyridin-4-yl)-1H-pyrrole-3-carboxamide]	4	–
Cc1ccc(-c2[nH]c(-c3c[nH]nc3C)cc2C(N)=O)c(F)c1 [compound 52, 2-(2-fluoro-4-methylphenyl)-5-(3-methyl-1H-pyrazol-4-yl)-1H-pyrrole-3-carboxamide]	–	HLC % remaining (1 h incub.) [1]: 100%; IntCl (Intrinsic Clearance) [1]: 2.9 μL/min/mg protein; HLC T½ min [1]: 239 min
Cc1ccc(-c2[nH]c(-c3ccnc4[nH]ccc34)cc2C(N)=O)c(F)c1 [compound 53, 2-(2-fluoro-4-methylphenyl)-5-(1H-pyrrolo[2,3-b]pyridin-4-yl)-1H-pyrrole-3-carboxamide]	–	HLC % remaining (1 h incub.) [1]: 100%; IntCl (Intrinsic Clearance) [1]: 2.9 μL/min/mg protein; HLC T½ min [1]: 239 min
NC(=O)c1cc(-c2ccnc3[nH]ccc23)n(CCO)c1-c1ccc(Cl)cc1Cl [compound 54, 2-(2,4-dichlorophenyl)-1-(2-hydroxyethyl)-5-(1H-pyrrolo[2,3-b]pyridin-4-yl)-1H-pyrrole-3-carboxamide]	418	–
